Assay results: the NIST ThermoML archive (doi:10.1016/j.jct.2018.11.004)

Assay: molar heat capacity at saturation pressure
Settings: Small (less than 1 g) adiabatic calorimetry

CC(C)[C@@H]1CC[C@@H](C)C[C@H]1O [L-menthol]
Settings	molar heat capacity [J/K/mol]
5.02 K, Crystal 1	0.8545
5.31 K, Crystal 1	1.027
5.63 K, Crystal 1	1.231
5.95 K, Crystal 1	1.445
6.26 K, Crystal 1	1.675
6.62 K, Crystal 1	1.937
7 K, Crystal 1	2.276
7.37 K, Crystal 1	2.577
7.74 K, Crystal 1	2.937
8.14 K, Crystal 1	3.382
8.58 K, Crystal 1	3.847
9.03 K, Crystal 1	4.373
9.49 K, Crystal 1	4.87
9.99 K, Crystal 1	5.512
10.51 K, Crystal 1	6.205
11.04 K, Crystal 1	6.889
11.61 K, Crystal 1	7.681
12.2 K, Crystal 1	8.523
12.83 K, Crystal 1	9.473
13.48 K, Crystal 1	10.42
14.15 K, Crystal 1	11.42
14.89 K, Crystal 1	12.53
15.66 K, Crystal 1	13.66
16.43 K, Crystal 1	14.93
17.26 K, Crystal 1	16.13
18.12 K, Crystal 1	17.43
19.04 K, Crystal 1	18.89
20 K, Crystal 1	20.23
21.02 K, Crystal 1	21.71
22.08 K, Crystal 1	23.27
23.2 K, Crystal 1	24.92
24.41 K, Crystal 1	26.58
25.66 K, Crystal 1	28.24
26.93 K, Crystal 1	29.92
28.27 K, Crystal 1	31.55
29.67 K, Crystal 1	33.28
31.12 K, Crystal 1	34.98
32.66 K, Crystal 1	36.66
34.28 K, Crystal 1	38.41
36 K, Crystal 1	40.06
37.89 K, Crystal 1	42.03
39.9 K, Crystal 1	43.93
42.02 K, Crystal 1	45.96
44.24 K, Crystal 1	48.03
46.54 K, Crystal 1	50.11
48.92 K, Crystal 1	52.21
51.35 K, Crystal 1	54.32
53.83 K, Crystal 1	56.47
56.32 K, Crystal 1	58.63
58.78 K, Crystal 1	60.81
61.29 K, Crystal 1	62.85
64.03 K, Crystal 1	65.18
66.85 K, Crystal 1	67.74
69.53 K, Crystal 1	70.14
72.08 K, Crystal 1	72.41
74.6 K, Crystal 1	74.48
77.11 K, Crystal 1	76.77
79.66 K, Crystal 1	78.77
79.78 K, Crystal 1	79.07
81.5 K, Crystal 1	80.47
82.26 K, Crystal 1	80.88
83.22 K, Crystal 1	81.89
84.79 K, Crystal 1	83.06
84.94 K, Crystal 1	83.28
86.67 K, Crystal 1	84.77
87.34 K, Crystal 1	85.27
88.39 K, Crystal 1	86.22
89.9 K, Crystal 1	87.37
90.12 K, Crystal 1	87.73
91.85 K, Crystal 1	89.21
92.42 K, Crystal 1	89.76
93.59 K, Crystal 1	90.65
94.94 K, Crystal 1	91.69
95.32 K, Crystal 1	92.09
97.06 K, Crystal 1	93.51
97.47 K, Crystal 1	93.81
98.8 K, Crystal 1	95.01
100.02 K, Crystal 1	95.95
100.55 K, Crystal 1	96.44
102.3 K, Crystal 1	97.81
102.58 K, Crystal 1	98.22
104.04 K, Crystal 1	99.24
105.18 K, Crystal 1	100.4
105.8 K, Crystal 1	100.7
107.55 K, Crystal 1	102
107.78 K, Crystal 1	102.4
109.31 K, Crystal 1	103.5
111.06 K, Crystal 1	104.9
112.82 K, Crystal 1	106.2
114.58 K, Crystal 1	107.7
116.34 K, Crystal 1	109
118.11 K, Crystal 1	110.4
119.87 K, Crystal 1	111.7
121.64 K, Crystal 1	113.1
123.41 K, Crystal 1	114.4
125.18 K, Crystal 1	115.8
126.95 K, Crystal 1	117.2
128.73 K, Crystal 1	118.4
130.5 K, Crystal 1	119.8
132.28 K, Crystal 1	121.1
134.07 K, Crystal 1	122.4
135.85 K, Crystal 1	123.7
137.63 K, Crystal 1	125.1
139.41 K, Crystal 1	126.4
141.2 K, Crystal 1	127.7
142.99 K, Crystal 1	128.9
144.77 K, Crystal 1	130.2
146.56 K, Crystal 1	131.5
148.36 K, Crystal 1	132.8
150.15 K, Crystal 1	134.1
151.94 K, Crystal 1	135.3
153.73 K, Crystal 1	136.6
155.53 K, Crystal 1	137.9
157.32 K, Crystal 1	139.1
159.12 K, Crystal 1	140.4
160.91 K, Crystal 1	141.7
162.72 K, Crystal 1	143
164.52 K, Crystal 1	144.3
166.32 K, Crystal 1	145.5
168.12 K, Crystal 1	146.8
169.92 K, Crystal 1	148
171.73 K, Crystal 1	149.2
173.53 K, Crystal 1	150.5
175.33 K, Crystal 1	151.8
177.14 K, Crystal 1	153.1
178.95 K, Crystal 1	154.4
180.76 K, Crystal 1	155.6
182.56 K, Crystal 1	156.9
184.37 K, Crystal 1	158.2
186.18 K, Crystal 1	159.4
188 K, Crystal 1	160.7
189.81 K, Crystal 1	162.1
191.62 K, Crystal 1	163.3
193.43 K, Crystal 1	164.6
195.25 K, Crystal 1	165.9
197.06 K, Crystal 1	167.2
198.87 K, Crystal 1	168.5
200.69 K, Crystal 1	169.8
202.5 K, Crystal 1	171.1
204.32 K, Crystal 1	172.4
206.14 K, Crystal 1	173.7
207.95 K, Crystal 1	175
209.77 K, Crystal 1	176.4
211.6 K, Crystal 1	177.6
213.42 K, Crystal 1	178.9
215.24 K, Crystal 1	180.2
216.36 K, Crystal 1	180.9
217.07 K, Crystal 1	181.5
218.32 K, Crystal 1	182.5
218.89 K, Crystal 1	182.9
220.14 K, Crystal 1	183.7
220.72 K, Crystal 1	184.2
221.96 K, Crystal 1	185.1
222.55 K, Crystal 1	185.4
223.78 K, Crystal 1	186.5
225.6 K, Crystal 1	187.8
227.43 K, Crystal 1	189.1
229.25 K, Crystal 1	190.5
231.07 K, Crystal 1	191.9
232.89 K, Crystal 1	193.3
234.71 K, Crystal 1	194.7
236.53 K, Crystal 1	196.1
238.35 K, Crystal 1	197.4
240.18 K, Crystal 1	198.8
242 K, Crystal 1	200.2
243.83 K, Crystal 1	201.7
245.65 K, Crystal 1	203.1
247.48 K, Crystal 1	204.5
249.3 K, Crystal 1	206
251.12 K, Crystal 1	207.5
252.95 K, Crystal 1	208.9
254.77 K, Crystal 1	210.4
256.59 K, Crystal 1	212
258.41 K, Crystal 1	213.7
260.23 K, Crystal 1	215.2
262.05 K, Crystal 1	216.8
263.88 K, Crystal 1	218.5
265.7 K, Crystal 1	220.1
267.52 K, Crystal 1	221.7
269.34 K, Crystal 1	223.4
271.17 K, Crystal 1	225.1
272.99 K, Crystal 1	226.5
274.82 K, Crystal 1	227.9
276.64 K, Crystal 1	229.6
278.46 K, Crystal 1	231.1
278.81 K, Crystal 1	231.4
280.29 K, Crystal 1	232.6
280.63 K, Crystal 1	233
282.11 K, Crystal 1	234.2
282.45 K, Crystal 1	234.5
283.93 K, Crystal 1	235.8
284.26 K, Crystal 1	236.1
285.75 K, Crystal 1	237.3
286.08 K, Crystal 1	237.7
287.57 K, Crystal 1	239
287.88 K, Crystal 1	239.5
289.39 K, Crystal 1	240.8
289.68 K, Crystal 1	241.3
290.89 K, Crystal 1	242.4
291.08 K, Crystal 1	242.5
291.22 K, Crystal 1	242.6
291.47 K, Crystal 1	242.9
291.8 K, Crystal 1	243.3
292.76 K, Crystal 1	244.5
293.04 K, Crystal 1	244.4
293.06 K, Crystal 1	244.7
293.25 K, Crystal 1	244.8
293.66 K, Crystal 1	245.4
294.53 K, Crystal 1	246.2
294.86 K, Crystal 1	246.6
294.94 K, Crystal 1	246.6
295.02 K, Crystal 1	246.7
295.44 K, Crystal 1	247.2
296.68 K, Crystal 1	248.4
296.79 K, Crystal 1	248.6
296.82 K, Crystal 1	248.6
298.5 K, Crystal 1	250.6
298.55 K, Crystal 1	250.5
298.69 K, Crystal 1	250.9
312.2 K, Liquid	370.6
314.15 K, Liquid	373.6
316.02 K, Liquid	376.5
317.57 K, Liquid	379.5
317.87 K, Liquid	379.7
318.1 K, Liquid	380.3
318.47 K, Liquid	380.7
318.82 K, Liquid	381.4
319.28 K, Liquid	381.8
319.72 K, Liquid	382.6
320.06 K, Liquid	383.3
320.34 K, Liquid	383.5
320.78 K, Liquid	384.6
321.01 K, Liquid	384.9
321.31 K, Liquid	385.3
321.56 K, Liquid	385.4
322.18 K, Liquid	386.6
322.55 K, Liquid	386.9
323.31 K, Liquid	388.4
323.4 K, Liquid	388.2
323.45 K, Liquid	388.5
323.79 K, Liquid	388.8
324.01 K, Liquid	389.3
325.28 K, Liquid	391.1
325.83 K, Liquid	392
325.85 K, Liquid	392.2
327.12 K, Liquid	393.8
327.67 K, Liquid	394.8
328.34 K, Liquid	395.8
328.95 K, Liquid	396.4
329.49 K, Liquid	397.5
330.79 K, Liquid	399.1
330.84 K, Liquid	399.3
331.3 K, Liquid	400.1
332.62 K, Liquid	401.7
333.11 K, Liquid	402.5
333.33 K, Liquid	402.6
334.46 K, Liquid	404.2
335.81 K, Liquid	406
336.3 K, Liquid	406.5
338.14 K, Liquid	408.8
338.29 K, Liquid	409
339.98 K, Liquid	411.3
340.77 K, Liquid	412.1
341.82 K, Liquid	413.4
343.25 K, Liquid	415.1
343.66 K, Liquid	415.8
345.5 K, Liquid	417.9
345.72 K, Liquid	418.1
347.35 K, Liquid	419.8
348.2 K, Liquid	420.7
349.19 K, Liquid	421.7
350.66 K, Liquid	423
351.04 K, Liquid	423.4
352.88 K, Liquid	425.1
353.12 K, Liquid	425.1
354.73 K, Liquid	426.7
355.58 K, Liquid	427.2
356.58 K, Liquid	428.4
358.04 K, Liquid	429.4
358.43 K, Liquid	429.7
360.27 K, Liquid	431.1
360.49 K, Liquid	431
362.12 K, Liquid	432.6
362.94 K, Liquid	432.8
363.97 K, Liquid	433.8
365.39 K, Liquid	434.2
365.82 K, Liquid	435.5
367.67 K, Liquid	436.2
367.84 K, Liquid	435.7
